In patent US10100022B2, “Sphingosine kinase inhibitors” (University of Virginia Patent Foundation, priority 2014, dated 2018) one finds Ki and modest hypertension data, which are given here for 6 compounds.

Series [1] concerns the target T1, human sphingosine kinase type 1 (hSPHK1) (Homo sapiens, UniProt Q9NYA1).
T1 construct: made in house; host or cells: Sf9 insect cells (baculovirus)
The series can be described thus: Sphingosine kinase assay, recombinant human SPHK1 ([32P]S1P product, scintillation counting). Type of series: biochemical. As to conditions: read-out: activity hSPHK1 (range estimate of KI). Put shortly: (§1)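 SPHK1 from cleared lysates of baculovirus-infected Sf9 cells, unpurified; SPHK2 partially purified from Sf9 lysates. Standard sphingosine kinase protocol; [32P]S1P product captured on cation exchange paper and counted by scintillation.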

In series [2] the target is T2, human sphingosine kinase type 2 (hSPHK2) (Homo sapiens, UniProt Q9NRA0).
T2 construct: purchased; host or cells: Sf9 insect cells (baculovirus)
T2 sequence (Q9NRA0 1-654): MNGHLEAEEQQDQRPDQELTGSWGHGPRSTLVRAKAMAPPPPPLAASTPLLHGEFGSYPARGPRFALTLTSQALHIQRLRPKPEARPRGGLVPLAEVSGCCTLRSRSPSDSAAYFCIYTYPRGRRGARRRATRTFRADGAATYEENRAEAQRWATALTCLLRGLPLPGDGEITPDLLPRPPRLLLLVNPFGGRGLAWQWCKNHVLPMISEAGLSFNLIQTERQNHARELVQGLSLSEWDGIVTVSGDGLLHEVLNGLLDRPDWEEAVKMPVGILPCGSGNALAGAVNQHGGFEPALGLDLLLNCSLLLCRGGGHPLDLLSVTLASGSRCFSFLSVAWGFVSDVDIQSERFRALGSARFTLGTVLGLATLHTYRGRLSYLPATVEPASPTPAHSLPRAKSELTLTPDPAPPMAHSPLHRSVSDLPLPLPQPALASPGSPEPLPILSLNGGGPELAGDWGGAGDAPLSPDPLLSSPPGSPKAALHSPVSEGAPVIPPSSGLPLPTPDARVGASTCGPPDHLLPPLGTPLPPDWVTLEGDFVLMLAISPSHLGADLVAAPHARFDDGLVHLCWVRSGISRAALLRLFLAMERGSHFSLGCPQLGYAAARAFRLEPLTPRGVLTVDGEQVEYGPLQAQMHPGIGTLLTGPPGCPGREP
The series can be described thus: Sphingosine kinase assay, recombinant human SPHK2 ([32P]S1P product, scintillation counting). The following applies: read-out: activity hSPHK2 (range estimate of KI). Type of series: biochemical. In outline:
as §1

For series [3] the following is noted: patients, 1-yr trial; cited from earlier work.

Where a name gives a salt, the structure may show the parent alone.

T1 sequence (Q9NYA1 whole entry): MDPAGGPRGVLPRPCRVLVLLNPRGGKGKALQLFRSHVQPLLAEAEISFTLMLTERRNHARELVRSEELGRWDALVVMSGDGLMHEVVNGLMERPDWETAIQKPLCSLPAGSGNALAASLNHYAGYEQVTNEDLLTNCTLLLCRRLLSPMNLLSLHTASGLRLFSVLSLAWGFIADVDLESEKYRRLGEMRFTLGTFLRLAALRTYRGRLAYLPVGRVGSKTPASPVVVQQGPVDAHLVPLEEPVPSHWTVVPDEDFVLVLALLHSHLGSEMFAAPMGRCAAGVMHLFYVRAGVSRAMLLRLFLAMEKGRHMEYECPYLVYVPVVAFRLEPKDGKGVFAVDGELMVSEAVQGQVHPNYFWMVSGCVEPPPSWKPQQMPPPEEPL

Broadly, the Ki is a measure of affinity in units of concentration, obtained from inhibition or displacement. `N=C(N)N1CCC[C@H]1c1nc(-c2ccc(OC/C=C\c3ccc(C(F)(F)F)cc3)c(C(F)(F)F)c2)no1` [Compound 92A, (S,Z)-amino(2-(3-(3-(trifluoromethyl)-4-((3-(4-(trifluoromethyl)phenyl)allyl)oxy)phenyl)-1,2,4-oxadiazol-5-yl)pyrrolidin-1-yl)methaniminium 2,2,2-trifluoroacetate]: the Ki in series [1] is greater than 10000 nM; in series [2], less than 1000 nM.
In the same order, the values of `CC(C)=CCC/C(C)=C/COc1ccc(-c2noc([C@@H]3CCCN3C(=N)N)n2)cc1C(F)(F)F` [Compound 93A, (S,E)-(2-(3-(4-((3,7-dimethylocta-2,6-dien-1-yl)oxy)-3-(trifluoromethyl)phenyl)-1,2,4-oxadiazol-5-yl)pyrrolidin-1-yl)(13-iodanylidene)methanamine hydrochloride] are greater than 10000 nM and greater than 10000 nM.
In the same order, the values of `CCCOc1ccc(CCc2ccc(-c3noc([C@@H]4CCCN4C(=N)N)n3)cc2C(F)(F)F)cc1` [Compound 94A, (S)-2-(3-(4-(4-propoxyphenethyl)-3-(trifluoromethyl)phenyl)-1,2,4-oxadiazol-5-yl)pyrrolidine-1-carboximidamide hydrochloride] are greater than 10000 nM and less than 1000 nM.
On the same counts, the results for `N=C(N)N1CC[C@H](O)[C@H]1c1nc(-c2ccc(OCCCC3CCCCC3)c(C(F)(F)F)c2)no1` [Compound 95A, amino((2S,3S)-2-(3-(4-(3-cyclohexylpropoxy)-3-(trifluoromethyl)phenyl)-1,2,4-oxadiazol-5-yl)-3-hydroxypyrrolidin-1-yl)methaniminium chloride] are 1000 to 10000 nM and less than 1000 nM.
For `N=C(N)N1CC[C@H](O)[C@H]1c1nc(-c2ccc(OCC3CCCCC3)c(C(F)(F)F)c2)no1` [Compound 96A, amino((2S,3S)-2-(3-(4-(cyclohexylmethoxy)-3-(trifluoromethyl)phenyl)-1,2,4-oxadiazol-5-yl)-3-hydroxypyrrolidin-1-yl)methaniminium chloride], the Ki in series [1] and in series [2] was less than 1000 nM throughout.
`CCCCCCCCc1ccc(CCC(N)(CO)CO)cc1` [fingolimod, 2-amino-2-[2-(4-octylphenyl)ethyl] propane 1,3-diol]: the modest hypertension in series [3] is on record as 2-3 mmHg.
